Where “and” joins values, the source holds several entries; their conditions need not be identical. Identical values can stand only once. Entries after “also recorded” stand apart in the source; their conditions may differ.
Key:
[1] = Fluorescence excitation/emission of the styryl dye library compounds; format: physicochemical
[2] = system: UACC-62 human melanoma cells; assay: Organelle localization in live cells by fluorescence microscopy; settings: live UACC-62 cells, fluorescence microscope λex=405, 490, 570 nm; λem>510 nm

Compound | EM(nm) ([1]; EX/EM peak no. 1) | LOCALIZATION [2] | EX(nm) ([1]; EX/EM peak no. 1) | EM(nm) ([1]; EX/EM peak no. 2) | EX(nm) ([1]; EX/EM peak no. 2)
C[n+]1c(C=Cc2ccccc2[N+](=O)[O-])ccc2ccccc21.[I-] [Compound H20] | 620 nm | NUCLEOLI |  |  | 
C[n+]1c(C=Cc2cccc([N+](=O)[O-])c2)ccc2ccccc21.[I-] [Compound H21] | 630 nm | MITO and NUCLEOLI | 420-550 nm |  | 
COc1ccc2ccccc2c1C=Cc1ccc2ccccc2[n+]1C.[I-] [Compound H23] | 580 nm | VESICLE; also recorded: NUCLEOLI | 420-480 nm |  | 
C[n+]1c(C=Cc2c[nH]c3ccccc23)ccc2ccccc21.[I-] [Compound H24] | 560 nm | CYTO | 400-500 nm |  | 
CN(C)c1ccc(C=Cc2ccc3ccccc3[n+]2C)c2ccccc12.[I-] [Compound H27] | 620 nm | MITO | 500(broad) nm |  | 
C[n+]1c(C=Cc2ccc3c(c2)Cc2ccccc2-3)ccc2ccccc21.[I-] [Compound H28] | 660 nm | NUCLEI | 350-500 nm |  | 
C[n+]1c(/C=C/c2c(F)c(F)c(F)c(F)c2F)ccc2ccccc21.[I-] [Compound H31] | 610 nm | MITO and NUCLEI | 420 nm |  | 
C[n+]1c(C=Cc2cccc3ccccc23)ccc2ccccc21.[I-] [Compound H32] | 660 nm | MITO and NUCLEOLI | 420 nm |  | 
C[n+]1c(C=Cc2ccc3ccccc3c2)ccc2ccccc21.[I-] [Compound H33] | 620 nm | MITO and NUCLEI and CYTO and VESICLE | 340-460 nm |  | 
C[n+]1c(C=Cc2ccc3c(c2)OCO3)ccc2ccccc21.[I-] [Compound H39] | 670 nm and 560 nm | CYTO | 530 nm and 430(broad) nm |  | 
COc1ccc2c(ccc(C=CCc3ccccc3)[n+]2C)c1.[I-] [Compound I1] | 630 nm | MITO | 460 nm |  | 
COc1ccc2c(ccc(C=Cc3ccccc3Br)[n+]2C)c1.[I-] [Compound I3] | 640 nm | MITO | 480 nm |  | 
COc1ccc2c(ccc(C=Cc3cccc(Br)c3)[n+]2C)c1.[I-] [Compound I4] | 620 nm | GRANULE | 400(broad) nm |  | 
COc1ccc(C=Cc2ccc3cc(OC)ccc3[n+]2C)cc1.[I-] [Compound I10] | 520 nm | CYTO and VESICLE |  | 640 nm | 
COc1ccc2c(ccc(C=Cc3ccc(OCc4ccccc4)c(OCc4ccccc4)c3)[n+]2C)c1.[I-] [Compound I12] | 560 nm | VESICLE |  |  | 
COc1ccc2c(ccc(C=Cc3ccc(OC)c4ccccc34)[n+]2C)c1.[I-] [Compound I14] | 580-590 nm | VESICLE | 460 nm |  | 
COc1ccc2c(ccc(C=Cc3ccc(O)cc3)[n+]2C)c1.[I-] [Compound I16] |  | VESICLE; also recorded: NUCLEOLI | 360 nm | 610 nm | 360-460 nm
COc1ccc2c(ccc(C=Cc3ccc(-c4ccccc4)cc3)[n+]2C)c1.[I-] [Compound I17] | 510 nm | VESICLE |  |  | 
COc1ccc2c(ccc(/C=C/c3ccc(NC(C)=O)cc3)[n+]2C)c1.[I-] [Compound I18] | 650 nm | NUCLEOLI | 430(broad) nm |  | 
COc1ccc2c(ccc(C=Cc3ccc(N(C)C)cc3)[n+]2C)c1.[I-] [Compound I19] | 630 nm | NUCLEOLI |  |  | 
COc1ccc2c(ccc(C=Cc3ccccc3[N+](=O)[O-])[n+]2C)c1.[I-] [Compound I20] | 620 nm | NUCLEOLI | 420(broad) nm |  | 
COc1ccc2c(ccc(C=Cc3cccc([N+](=O)[O-])c3)[n+]2C)c1.[I-] [Compound I21] | 620 nm | VESICLE; also recorded: NUCLEOLI | 390 nm |  | 
COc1ccc2c(ccc(C=Cc3ccc(N(C)C)c4ccccc34)[n+]2C)c1.[I-] [Compound I27] | 630-660 nm | NUCLEOLI | 420 nm |  | 
COc1ccc2c(ccc(C=Cc3ccc4c(c3)Cc3ccccc3-4)[n+]2C)c1.[I-] [Compound I28] | 660 nm | NUCLEOLI | 450(broad) nm |  | 
COc1ccc2c(ccc(C=Cc3ccc(F)cc3)[n+]2C)c1.[I-] [Compound I30] | 630 nm | MITO |  |  | 
COc1ccc2c(ccc(C=Cc3c(F)c(F)c(F)c(F)c3F)[n+]2C)c1.[I-] [Compound I31] | 610 nm | MITO and NUCLEI and CYTO | 380 nm |  | 

Compound | EM(nm) ([1]; EX/EM peak no. 1) | LOCALIZATION [2] | EX(nm) ([1]; EX/EM peak no. 1) | EM(nm) ([1]; EX/EM peak no. 2) | EX(nm) ([1]; EX/EM peak no. 2)
COc1ccc2c(ccc(C=Cc3cccc4ccccc34)[n+]2C)c1.[I-] [Compound I32] | 610 nm | MITO and NUCLEI and NUCLEOLI | 360-440 nm |  | 
COc1ccc2c(ccc(/C=C/c3ccc4ccccc4c3)[n+]2C)c1.[I-] [Compound I33] | 640 nm | VESICLE and MITO and NUCLEI | 420 nm | 560 nm | 320-460 nm
COc1ccc2c(ccc(C=CC=Cc3ccccc3)[n+]2C)c1.[I-] [Compound I35] | 580 nm | CYTO | 320-360 nm |  | 
COc1ccc2c(ccc(C=CC=Cc3ccc(N(C)C)cc3)[n+]2C)c1.[I-] [Compound I37] | 730 nm | CYTO | 530 nm |  | 
COc1ccc2c(ccc(C=Cc3cc(OC)c(OC)cc3OC)[n+]2C)c1.[I-] [Compound I38] | 620 nm | CYTO | 390 nm |  | 
Cc1ccnc(-c2cc(/C=C/Cc3ccccc3)cc[n+]2C)c1.[I-] [Compound J1] | 620 nm | MITO | 450 nm |  | 
Cc1ccnc(-c2cc(/C=C/c3ccccc3Br)cc[n+]2C)c1.[I-] [Compound J3] | 620 nm | MITO | 450 nm |  | 
COc1ccccc1C=Cc1cc[n+](C)c(-c2cc(C)ccn2)c1.[I-] [Compound J9] | 520 nm | MITO | 420(broad) nm |  | 
COc1ccc(C=Cc2cc[n+](C)c(-c3cc(C)ccn3)c2)cc1.[I-] [Compound J10] | 520 nm | MITO | 350-450 nm |  | 
Cc1ccnc(-c2cc(C=Cc3ccc(OCc4ccccc4)c(OCc4ccccc4)c3)cc[n+]2C)c1.[I-] [Compound J12] | 560 nm | VESICLE | 350-470 nm |  | 
COc1ccc(C=Cc2cc[n+](C)c(-c3cc(C)ccn3)c2)cc1O.[I-] [Compound J15] | 530 nm | VESICLE | 340-440 nm |  | 
Cc1ccnc(-c2cc(/C=C/c3ccc(N(C)C)cc3)cc[n+]2C)c1.[I-] [Compound J19] | 640 nm | MITO | 480 nm |  | 
Cc1ccnc(-c2cc(C=Cc3ccccc3[N+](=O)[O-])cc[n+]2C)c1.[I-] [Compound J20] | 620 nm | VESICLE | 420 nm |  | 
Cc1ccnc(-c2cc(C=Cc3c(F)c(F)c(F)c(F)c3F)cc[n+]2C)c1.[I-] [Compound J31] | 520 nm | MITO |  |  | 
Cc1ccnc(-c2cc(/C=C/c3cccc4ccccc34)cc[n+]2C)c1.[I-] [Compound J32] | 530 nm | MITO | 350-450 nm |  | 
Cc1ccnc(-c2cc(C=Cc3ccc4ccccc4c3)cc[n+]2C)c1.[I-] [Compound J33] | 520 nm | MITO | 320-450 nm |  | 
Cc1ccnc(-c2cc(C=CC=Cc3ccccc3)cc[n+]2C)c1.[I-] [Compound J35] | 580 nm | CYTO | 340-420 nm |  | 
COc1cc(OC)c(OC)cc1C=Cc1cc[n+](C)c(-c2cc(C)ccn2)c1.[I-] [Compound J38] | 590 nm | MITO | 380-500 nm |  | 
Cc1ccnc(-c2cc(C=Cc3ccc4c(c3)OCO4)cc[n+]2C)c1.[I-] [Compound J39] | 560 nm | MITO | 350-450 nm |  | 
COc1ccc(C=Cc2cccc(C)[n+]2C)cc1.[I-] [Compound L10] | 510 nm | MITO | 420 nm |  | 
Cc1cccc(/C=C/c2ccc(N(C)C)cc2)[n+]1C.[I-] [Compound L19] | 580 nm | MITO | 450 nm |  | 
COc1ccc2ccccc2c1C=Cc1cccc(C)[n+]1C.[I-] [Compound L23] | 570 nm | CYTO | 420 nm |  | 
Cc1cccc(C=Cc2cccc3ccccc23)[n+]1C.[I-] [Compound L32] | 520 nm | MITO | 400(broad) nm |  | 
Cc1cccc(C=Cc2ccc3ccccc3c2)[n+]1C.[I-] [Compound L33] | 500 nm | MITO | 360-470 nm |  | 
Cc1cccc(C=CC=Cc2ccccc2)[n+]1C.[I-] [Compound L35] | 510 nm | MITO | 420 nm |  | 

From patent publication US20050054006A1, “Combinatorial fluorescent library based on the styryl scaffold” (New York University, priority 2003, published 2005)
